Assay results: patent US20220381657A1, “METHOD FOR PREPARING BIOLOGICAL MATERIAL HAVING EXCELLENT LIGHT-TRANSMITTING PROPERTY” (RIKEN, priority 2016, published 2022)
Read-outs that look alike come from different tables or passages of the source. One block for each molecule: values may come before it.

Legend:
[1] = test system: fixed brain tissue suspension; assay: 1st delipidation assay: solubilization of fixed brain tissue suspension, turbidity at 600 nm; design: species or system mice
Method: Specifically, brains taken out of mice were sheared with a utility knife and then were disrupted by ultrasonication. To each of the resultant suspensions, an equal volume of 8% PFA solution was added to perform fixation at 4° C. for 1 hour. The resultant mixture was centrifuged to remove the supernatant, and the fixed brain tissue was washed with PBS for 3 times. PBS was added so as to obtain 2 mL of a fixed brain tissue suspension per brain. The fixed brain tissue suspension was diluted by 3.5 folds. To 20 μL of the resultant suspension, 130 μL of each 10 wt % chemical was added and was shaken at 37° C. overnight. Thus obtained mixed solutions were subjected to absorbance (turbidity) measurement at 600 nm. It is expected that a chemical solution which reduces the turbidity of a fixed brain suspension allows reducing light scattering by solubilizing lipids, which act as a scattering factor, in the brain tissue.

[2] = for OD400: Table 1; for 400 nm: OD at 400 nm of the chemical
bovine coagulated blood = assay: Decoloring screening: heme eluted from bovine coagulated blood (OD420-OD700); details: decolorization; for 700 nm calibrated 420 nm Average: OD420 calibrated by OD700; for integrated value 500-700 nm Average: integrated absorbance 500-700 nm
Method: A high-throughput screening system for evaluating the decoloring ability of various compounds was constructed. The screening system involved adding an aqueous solution of each compound to bovine coagulated blood and then measuring the absorbance of heme collected in the supernatant.
Specifically, to bovine blood, an equal amount of 8% PFA solution was added, and reacted at 4° C. overnight. The mixed liquid was centrifuged at 1500×g for 5 minutes, and the supernatant containing PFA was discarded. Then, the same amount of PBS as the original volume of blood was added to prepare a coagulated blood sample. To 150 μL of 10 wt % aqueous solution of each compound, 50 μL of the coagulated blood sample was added, and reacted at 37° C. overnight. The reaction solution was centrifuged at 1500×g for 5 minutes, and then 100 μL of the supernatant was added to a plate so as to be subjected to absorbance measurement. A sample which is suspended in water instead of being dissolved in the water has a weak decoloring effect, but none the less has a high absorbance value. […]

[3] = Table 1, 10 wt % chemical, fixed mouse brain suspension, 37° C. overnight, PBS = 1.000

Molecule: Isobutylamine [#1043]
1st delipidation assay Relative OD600 [1, 3]: 0.251

Molecule: CCCCCCCCCS(=O)(=O)[O-].[Na+] [#0870, Sodium 1-nonanesulfonate]
1st delipidation assay Relative OD600 [1, 3]: 0.247
pH (Table 1): 6.8
OD400 [2]: 0.047

Molecule: CCCCNCCN [#0422, N-Butylethylenediamine]
1st delipidation assay Relative OD600 [1, 3]: 0.307
pH (Table 1): 12.7
OD400 [2]: 0.05

Molecule: Polyethylene glycol mono-4-octylphenyl ether [#1103]
1st delipidation assay Relative OD600 [1]: 0.184

Molecule: Dodecene-1 LAS [#0672]
1st delipidation assay Relative OD600 [1]: 0.152
Fluorescence quench Average (Serius): 1.08
700 nm calibrated 420 nm Average (bovine coagulated blood): 1.45
integrated value 500-700 nm Average (bovine coagulated blood): 1.41

Molecule: Nonidet P-40 [#1511]
1st delipidation assay Relative OD600 [1]: 0.193

Molecule: CCCCCCCCCCCCOS(=O)(=O)[O-].[Li+] [#1310, Lithium dodecyl sulfate]
1st delipidation assay Relative OD600 [1, 3]: 0.155

Molecule: C1CCNCC1 [#1097, Piperidine]
1st delipidation assay Relative OD600 [1, 3]: 0.166

Molecule: CC1(C)CC(N)CC(C)(CN)C1 (centres unmarked) [#1602, Isophoronediamine]
1st delipidation assay Relative OD600 [1, 3]: 0.190
Fluorescence quench Average (Serius; relative fluorescence): 0.53
pH (Table 1): 10.8
pH ([…]): 10.8
400 nm [2]: 0.051
OD400 [2]: 0.051
700 nm calibrated 420 nm Average (bovine coagulated blood): 2.08
integrated value 500-700 nm Average (bovine coagulated blood): 1.26

Molecule: OCC(O)c1ccccc1 (centres unmarked) [#1074, 1-Phenylethane-1,2-diol]
1st delipidation assay Relative OD600 [1, 3]: 0.336
pH (Table 1): 9.5
OD400 [2]: 0.05

Molecule: CN(C)C(=N)N(C)C [#1444, 1,1,3,3-Tetramethylguanidine]
1st delipidation assay Relative OD600 [1, 3]: 0.124
Fluorescence quench Average (Serius; relative fluorescence): 0.14
pH (Table 1): 12.4
pH ([…]): 12.4
400 nm [2]: 0.072
OD400 [2]: 0.072
700 nm calibrated 420 nm Average (bovine coagulated blood): 1.38
integrated value 500-700 nm Average (bovine coagulated blood): 1.15

Molecule: Tween ® 80 [#1460]
1st delipidation assay Relative OD600 [1, 3]: 0.095
pH (Table 1): 5.7
OD400 [2]: 0.065

Molecule: N.O=C(O)C(F)(F)C(F)(F)C(F)(F)C(F)(F)C(F)(F)C(F)(F)C(F)(F)F [#1162, Ammonium pentadecafluorooctanoate]
1st delipidation assay Relative OD600 [1, 3]: 0.318

Molecule: Cc1cccc(C)n1 [#1008, 2,6-Lutidine]
1st delipidation assay Relative OD600 [1, 3]: 0.314
Fluorescence quench Average (Serius; relative fluorescence): 0.71
pH (Table 1): 9.9
pH ([…]): 9.9
400 nm [2]: 0.063
OD400 [2]: 0.063
700 nm calibrated 420 nm Average (bovine coagulated blood): 2.00
integrated value 500-700 nm Average (bovine coagulated blood): 2.16

Molecule: Isopropylamine [#1006]
1st delipidation assay Relative OD600 [1, 3]: 0.318

Molecule: Triton ™ X-100 [reference compound]
1st delipidation assay Relative OD600 [1, 3]: 0.240

Molecule: CCCCCCCCCCCS(=O)(=O)[O-].[Na+] [#1419, Sodium 1-undecanesulfonate]
1st delipidation assay Relative OD600 [1, 3]: 0.124
pH (Table 1): 5.9
OD400 [2]: 0.056

Molecule: C[C@H](CCC(=O)O)[C@H]1CC[C@H]2[C@@H]3[C@H](O)C[C@@H]4C[C@H](O)CC[C@]4(C)[C@H]3C[C@H](O)[C@]12C [#0566, Sodium Cholate]
1st delipidation assay Relative OD600 [1]: 0.254

Molecule: CCCCCCCCCCCC[N+](C)(C)C.[Cl-] [#1021, Dodecyltrimethyl- ammonium chloride]
1st delipidation assay Relative OD600 [1, 3]: 0.194
Fluorescence quench Average (Serius): 1.11
700 nm calibrated 420 nm Average (bovine coagulated blood): 1.96
integrated value 500-700 nm Average (bovine coagulated blood): 1.70

Molecule: CN1C2CCC1CC(O)C2 (centres unmarked) [#1462, Tropine]
1st delipidation assay Relative OD600 [1, 3]: 0.292

Molecule: CN1CCCC1 [#1295, 1-Methylpyrrolidine]
1st delipidation assay Relative OD600 [1, 3]: 0.325
pH (Table 1): 10.5
OD400 [2]: 0.085

Molecule: c1cnc(N2CCNCC2)nc1 [#1167, 1-(2-Pyrimidyl) piperazine]
Fluorescence quench Average (Serius; relative fluorescence): 0.01
pH ([…]): 12.5
400 nm [2]: 0.084
700 nm calibrated 420 nm Average (bovine coagulated blood): 1.39
integrated value 500-700 nm Average (bovine coagulated blood): 1.09

The next lines start with results.

pH (Table 1): 7.0
OD400 [2]: 0.047
Molecule: CCCCCCCCCC(=O)N(C)CC(=O)[O-].[Na+] [#0703, N-Decanoylsarcosine sodium salt]
1st delipidation assay Relative OD600 [1, 3]: 0.223

pH (Table 1): 12.4
OD400 [2]: 0.048
Molecule: CC(O)CN(CCN(CC(C)O)CC(C)O)CC(C)O (centres unmarked) [Quadrol ®, reference compound]
1st delipidation assay Relative OD600 [1, 3]: 0.569

pH (Table 1): 12.7
OD400 [2]: 0.052
Molecule: CC(C)(C)N(CCO)CCO [#0390, N-tert- Butyldiethanolamine]
1st delipidation assay Relative OD600 [1, 3]: 0.318

pH (Table 1): 7.6
pH ([…]): 7.6
400 nm [2]: 0.051
OD400 [2]: 0.051
Molecule: Cc1ccnc(C)c1 [#1312, 2,4-Lutidine]
1st delipidation assay Relative OD600 [1, 3]: 0.325
Fluorescence quench Average (Serius; relative fluorescence): 0.84
700 nm calibrated 420 nm Average (bovine coagulated blood): 2.47
integrated value 500-700 nm Average (bovine coagulated blood): 2.59

pH (Table 1): 13.4
pH ([…]): 13.4
400 nm [2]: 0.061
OD400 [2]: 0.061
Molecule: CC(C)NCCCN [#1027, N-Isopropyl-1,3-diaminopropane]
1st delipidation assay Relative OD600 [1, 3]: 0.219
Fluorescence quench Average (Serius; relative fluorescence): 0.55
700 nm calibrated 420 nm Average (bovine coagulated blood): 1.52
integrated value 500-700 nm Average (bovine coagulated blood): 1.24

pH (Table 1): 13.3
pH (Table 4): 13.27
pH ([…]): 13.3
400 nm [2]: 0.054
OD400 [2]: 0.054
Molecule: NCC1CCC(CN)CC1 (centres unmarked) [#0071, 1,4-Bis(aminomethyl) cyclohexane]
1st delipidation assay Relative OD600 [1, 3]: 0.318
Fluorescence quench Average (Serius; relative fluorescence): 0.56
700 nm calibrated 420 nm Average (bovine coagulated blood): 3.25
integrated value 500-700 nm Average (bovine coagulated blood): 1.90

pH (Table 1): 5.9
OD400 [2]: 0.046
Molecule: CCCCCCCCCCS(=O)(=O)[O-].[Na+] [#0625, Sodium 1-decanesulfonate]
1st delipidation assay Relative OD600 [1, 3]: 0.325

pH (Table 1): 13.0
pH ([…]): 13.0
400 nm [2]: 0.079
OD400 [2]: 0.079
Molecule: NCC1CCCC(CN)C1 (centres unmarked) [#0070, 1,3-Bis(aminomethyl) cyclohexane]
1st delipidation assay Relative OD600 [1, 3]: 0.286
Fluorescence quench Average (Serius; relative fluorescence): 0.62
700 nm calibrated 420 nm Average (bovine coagulated blood): 3.15
integrated value 500-700 nm Average (bovine coagulated blood): 1.91

pH (Table 1): 9.6
OD400 [2]: 0.055
Molecule: CC(C)CCN [#1038, Isoamylamine]
1st delipidation assay Relative OD600 [1, 3]: 0.247

pH ([…]): 14.1
400 nm [2]: 0.05
Molecule: OCCCC1CCN(CCO)CC1 [#1226, 1-(2-Hydroxyethyl)-4-(3-hydroxypropyl) piperidine]
Fluorescence quench Average (Serius; relative fluorescence): 0.76
700 nm calibrated 420 nm Average (bovine coagulated blood): 2.20
integrated value 500-700 nm Average (bovine coagulated blood): 2.29

pH (Table 1): 10.3
pH ([…]): 10.3
400 nm [2]: 0.053
OD400 [2]: 0.053
Molecule: CC(=O)O.CCCCCCCCCCCCN [#0627, Dodecylamine acetate]
Fluorescence quench Average (Serius; relative fluorescence): 1.05
700 nm calibrated 420 nm Average (bovine coagulated blood): 2.21
integrated value 500-700 nm Average (bovine coagulated blood): 1.74
